In patent US20260200919A1, “SUBSTITUTED AMINOPYRIDINE COMPOUNDS AND METHODS OF TREATING DISEASE USING SAME” (Atavistik Bio, Inc., priority 2023, published 2026):

Columns and labels:
[1] = biological target: T1, human recombinant kinase full-length AKT1 E17K (Homo sapiens, UniProt P31749, E17K); test: AKT1 E17K kinase assay (TR-FRET, Lance); format: biochemical; settings: 0.6 nM AKT1 E17K, 50 nM Ulight-CREBtide, either 50 μM ATP or 2 mM ATP (not specified which), 60 min at RT
T1 construct: Purified human recombinant kinase full-length AKT1 E17K was expressed in insect cells; made in house; host or cells: insect cells
T1 sequence (P31749 whole entry E17K): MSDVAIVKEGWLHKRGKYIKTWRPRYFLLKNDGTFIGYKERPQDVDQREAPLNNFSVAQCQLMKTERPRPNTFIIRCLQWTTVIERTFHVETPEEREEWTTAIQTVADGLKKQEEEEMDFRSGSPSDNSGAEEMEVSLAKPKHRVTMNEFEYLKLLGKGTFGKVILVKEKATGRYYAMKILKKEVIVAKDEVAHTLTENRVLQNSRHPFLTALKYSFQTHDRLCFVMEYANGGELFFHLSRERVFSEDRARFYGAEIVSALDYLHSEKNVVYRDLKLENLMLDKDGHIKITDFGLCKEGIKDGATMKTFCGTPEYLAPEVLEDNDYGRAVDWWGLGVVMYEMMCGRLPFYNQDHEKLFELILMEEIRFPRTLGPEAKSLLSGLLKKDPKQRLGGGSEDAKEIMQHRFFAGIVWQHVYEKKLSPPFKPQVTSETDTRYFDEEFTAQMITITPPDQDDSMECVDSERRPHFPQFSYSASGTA
Procedure, shortened: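 Full-length human AKT1 E17K (insect cell-expressed, PDPK1-activated; 0.6 nM) with 50 nM ULight-CREBtide in HEPES pH 7.5 with MgCl2 and DTT. ATP at 50 μM or 2 mM, 1% DMSO, 10-point dose response, 60 min at RT.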

[2] = biological target: T2, human recombinant kinase full-length wildtype AKT1 (Homo sapiens, UniProt P31749); test: AKT1 kinase assay (wildtype, TR-FRET, Lance); format: biochemical; settings: 0.6 nM wildtype AKT1, 50 nM Ulight-CREBtide, either 50 μM ATP or 2 mM ATP (not specified which), 60 min at RT
T2 construct: Purified human recombinant kinase full-length wildtype AKT1 was expressed in insect cells; made in house; host or cells: insect cells
T2 sequence (P31749 whole entry): as the sequence (P31749 whole entry E17K) above, with K17E counted along it
Procedure, shortened: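 Insect-cell-expressed AKT1, activated in vitro by PDPK1, was used at 0.6 nM with 50 nM Ulight-CREBtide and 50 μM or 2 mM ATP in 50 mM HEPES pH 7.5, 1% DMSO, over a 10-point dose response.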

Row | SMILES | IC50 [1] [µM] | IC50 [2] [µM]
1 | NC(=O)c1cnc2c(c1)nc(-c1cccnc1N)n2-c1ccc(CNC(=O)c2cccc(CC(=O)O)c2)cc1 [Compound 97, 2-[3-[[4-[2-(2-amino-3-pyridyl)-6-carbamoyl-imidazo[4,5-b]pyridin-3-yl]phenyl]methylcarbamoyl]phenyl]acetic acid] | > 0.5 | > 0.5
2 | Nc1ncccc1-c1nc2cc(C(F)(F)F)cnc2n1-c1ccc(CNC(=O)c2ccc(C(=O)O)cc2)cc1 [Compound 98, 4-((4-(2-(2-aminopyridin-3-yl)-6-(trifluoromethyl)-3H-imidazo[4,5-b]pyridin-3-yl)benzyl)carbamoyl)benzoic acid] | > 0.5 | < 0.5
3 | Nc1ncccc1-c1nc2ccc(C(F)(F)F)nc2n1-c1ccc(CNC(=O)c2ccc(C(=O)O)cc2)cc1 [Compound 99, 4-((4-(2-(2-aminopyridin-3-yl)-5-(trifluoromethyl)-3H-imidazo[4,5-b]pyridin-3-yl)benzyl)carbamoyl)benzoic acid] | > 0.5 | < 0.5
4 | COC(=O)Cc1cccc(C(=O)NCc2ccc(-n3c(-c4cccnc4N)nc4cccnc43)cc2)c1 [Compound 100, methyl 2-(3-((4-(2-(2-aminopyridin-3-yl)-3H-imidazo[4,5-b]pyridin-3-yl)benzyl)carbamoyl)phenyl)acetate] | > 0.5 | > 0.5
5 | Nc1ncccc1-c1nc2cccnc2n1-c1ccc(CNC(=O)c2cccc(CC(=O)O)c2)cc1 [Compound 101, 2-(3-((4-(2-(2-aminopyridin-3-yl)-3H-imidazo[4,5-b]pyridin-3-yl)benzyl)carbamoyl)phenyl) acetic acid] | > 0.5 | > 0.5
6 | COc1ccc2nc(-c3cccnc3N)n(-c3ccc(CNC(=O)c4ccc(C(=O)O)cc4C)cc3)c2c1 [Compound 102, 4-((4-(2-(2-aminopyridin-3-yl)-6-methoxy-1H-benzo[d]imidazol-1-yl)benzyl)carbamoyl)-3-methylbenzoic acid] | > 0.5 | < 0.5
7 | COc1ccc2nc(-c3cccnc3N)n(-c3ccc(CNC(=O)c4cccc(C(=O)O)c4F)cc3)c2c1 [Compound 103, 3-((4-(2-(2-aminopyridin-3-yl)-6-methoxy-1H-benzo[d]imidazol-1-yl)benzyl)carbamoyl)-2-fluorobenzoic acid] | > 0.5 | > 0.5
8 | COc1ccc2nc(-c3cccnc3N)n(-c3ccc(CNC(=O)c4cccc(CC(=O)O)c4)cc3)c2c1 [Compound 104, 2-(3-((4-(2-(2-aminopyridin-3-yl)-6-methoxy-1H-benzo[d]imidazol-1-yl)benzyl)carbamoyl)phenyl) acetic acid] | > 0.5 | > 0.5
9 | Cc1cc(C(=O)O)ccc1C(=O)NCc1ccc(-n2c(-c3cccnc3N)nc3ccc(C(F)(F)F)cc32)cc1 [Compound 105, 4-((4-(2-(2-aminopyridin-3-yl)-6-(trifluoromethyl)-1H-benzo[d]imidazol-1-yl)benzyl)carbamoyl)-3-methylbenzoic acid] | > 0.5 | < 0.5
10 | Nc1ncccc1-c1nc2ccc(C(F)(F)F)cc2n1-c1ccc(CNC(=O)c2cccc(C(=O)O)c2F)cc1 [Compound 106, 3-((4-(2-(2-aminopyridin-3-yl)-6-(trifluoromethyl)-1H-benzo[d]imidazol-1-yl)benzyl)carbamoyl)-2-fluorobenzoic acid] | > 0.5 | > 0.5
11 | Nc1ncccc1-c1nc2ccc(C(F)(F)F)cc2n1-c1ccc(CNC(=O)c2cccc(CC(=O)O)c2)cc1 [Compound 107, 2-(3-((4-(2-(2-aminopyridin-3-yl)-6-(trifluoromethyl)-1H-benzo[d]imidazol-1-yl)benzyl)carbamoyl)phenyl) acetic acid] | > 0.5 | > 0.5
12 | Nc1ncccc1-c1nc2ccccc2n1-c1ccc(CNC(=O)c2cccc(CC(=O)O)c2)cc1 [Compound 108, 2-(3-((4-(2-(2-aminopyridin-3-yl)-1H-benzo[d]imidazol-1-yl)benzyl)carbamoyl)phenyl) acetic acid] | > 0.5 | > 0.5
13 | Nc1ncccc1-c1nc2ccc(-c3ccc(F)cc3)nc2n1-c1ccc(NC(=O)c2ccc(C(=O)O)cc2)nc1 [Compound 109, 4-((5-(2-(2-aminopyridin-3-yl)-5-(4-fluorophenyl)-3H-imidazo[4,5-b]pyridin-3-yl)pyridin-2-yl)carbamoyl)benzoic acid] | 0.05 to 0.2 | < 0.5
14 | Nc1ncccc1-c1nc2ccc(-c3ccccc3)nc2n1-c1ccc(NC(=O)c2ccc(C(=O)O)c(F)c2)nc1 [Compound 117] | < 0.05 | < 0.5
15 | Cc1cc(C(=O)Nc2ccc(-n3c(-c4cccnc4N)nc4ccc(-c5ccccc5)nc43)cn2)ccc1C(=O)O [Compound 118, 4-((5-(2-(2-aminopyridin-3-yl)-5-phenyl-3H-imidazo[4,5-b]pyridin-3-yl)pyridin-2-yl)carbamoyl)-2-methylbenzoic acid] | < 0.05 | < 0.5
16 | Nc1ncccc1-c1nc2ccc(-c3ccccc3)nc2n1-c1ccc(C2CCN(Cc3ccc(C(=O)O)cc3)CC2)cc1 [Compound 139, 4-((4-(4-(2-(2-aminopyridin-3-yl)-5-phenyl-3H-imidazo[4,5-b]pyridin-3-yl)phenyl)piperidin-1-yl)methyl)benzoic acid] | > 0.5 | < 0.5
17 | Cc1cc(C(=O)Nc2ccc(-n3c(-c4cccnc4N)nc4ccc(-c5ccccc5)nc43)cn2)c(F)cc1C(=O)O [Compound 145] | 0.05 to 0.2 | < 0.5
18 | Cc1nc(NC(=O)c2cc(F)c(C(=O)O)cc2F)ccc1-n1c(-c2cccnc2N)nc2ccc(-c3ccccc3)nc21 [Compound 147] | 0.05 to 0.2 | < 0.5

Row | SMILES | IC50 [1] [µM] | IC50 [2] [µM]
19 | Cc1nc(NC(=O)c2ccc(C(=O)O)cc2F)ccc1-n1c(-c2cccnc2N)nc2ccc(-c3ccccc3)nc21 [Compound 148] | 0.05 to 0.2 | < 0.5
20 | Cc1cc(C(=O)O)c(F)cc1C(=O)Nc1ccc(-n2c(-c3cccnc3N)nc3ccc(-c4ccccc4)nc32)c(C)n1 [Compound 149] | 0.05 to 0.2 | < 0.5
21 | Nc1ncccc1-c1nc2ccc(-c3ccccc3)nc2n1-c1ccc(NC(=O)c2cc(F)c(C(=O)O)c(F)c2)nc1 [Compound 150] | < 0.05 | < 0.5
22 | Nc1ncccc1-c1nc2ccc(-c3ccccc3)nc2n1-c1ccc(NC(=O)c2ccc(C(=O)O)nc2)nc1 [Compound 151] | < 0.05 | < 0.5
23 | Nc1ncccc1-c1nc2ccc(-c3ccccc3)nc2n1-c1ccc(NC(=O)c2cc(F)c(C(=O)O)cc2F)nc1 [Compound 152] | 0.05 to 0.2 | < 0.5
24 | Cc1nc(NC(=O)c2ccc(C(=O)O)cc2)ccc1-n1c(-c2cccnc2N)nc2ccc(-c3ccccc3)nc21 [Compound 153] | < 0.05 | < 0.5
25 | Cc1nc(NC(=O)c2ccc(C(=O)O)c(F)c2)ccc1-n1c(-c2cccnc2N)nc2ccc(-c3ccccc3)nc21 [Compound 154] | < 0.05 | < 0.5
26 | Cc1cc(C(=O)Nc2ccc(-n3c(-c4cccnc4N)nc4ccc(-c5ccccc5)nc43)c(C)n2)c(C)cc1C(=O)O [Compound 155] | > 0.5 | < 0.5
27 | C[C@@H](c1ccc(C(=O)O)cc1F)N1CC(c2ccc(-n3c(-c4cccnc4N)nc4ccc(-c5ccccc5)nc43)cc2)C1 [Compound 159] | 0.2 to 0.5 | < 0.5
28 | C[C@H](c1ccc(C(=O)O)cc1F)N1CC(c2ccc(-n3c(-c4cccnc4N)nc4ccc(-c5ccccc5)nc43)cc2)C1 [Compound 160] | 0.05 to 0.2 | < 0.5
29 | CC(C)[C@H](c1ccc(C(=O)O)cc1)N1CC(c2ccc(-n3c(-c4cccnc4N)nc4ccc(-c5ccccc5)nc43)cc2)C1 [Compound 161] | 0.2 to 0.5 | < 0.5
30 | CC(C)[C@@H](c1ccc(C(=O)O)cc1)N1CC(c2ccc(-n3c(-c4cccnc4N)nc4ccc(-c5ccccc5)nc43)cc2)C1 [Compound 162] | 0.2 to 0.5 | < 0.5
31 | CC(c1ccc(C(=O)O)c(F)c1)N1CC(c2ccc(-n3c(-c4cccnc4N)nc4ccc(-c5ccccc5)nc43)cc2)C1 (stereo not shown) [Compound 163] | 0.05 to 0.2 | < 0.5
32 | C[C@@H](c1ccc(C(=O)O)cc1C(F)(F)F)N1CC(c2ccc(-n3c(-c4cccnc4N)nc4ccc(-c5ccccc5)nc43)cc2)C1 [Compound 164] | > 0.5 | < 0.5
33 | C[C@H](c1ccc(C(=O)O)cc1C(F)(F)F)N1CC(c2ccc(-n3c(-c4cccnc4N)nc4ccc(-c5ccccc5)nc43)cc2)C1 [Compound 165] | 0.05 to 0.2 | < 0.5
34 | CC(c1ccc(C(=O)O)cc1)N1CC(c2ccc(-n3c(-c4cccnc4N)nc4ccc(-c5ccccc5)nc43)cc2F)C1 (stereo not shown) [Compound 166, 4-(1-(3-(4-(2-(2-aminopyridin-3-yl)-5-phenyl-3H-imidazo[4,5-b]pyridin-3-yl)-2-fluorophenyl)azetidin-1-yl)ethyl)benzoic acid] | 0.2 to 0.5 | < 0.5
35 | CC(c1ccc(C(=O)O)cc1)N1CC(c2ccc(-n3c(-c4cccnc4N)nc4ccc(-c5ccccc5)nc43)cn2)C1 (stereo not shown) [Compound 167, 4-(1-(3-(5-(2-(2-aminopyridin-3-yl)-5-phenyl-3H-imidazo[4,5-b]pyridin-3-yl)pyridin-2-yl)azetidin-1-yl)ethyl)benzoic acid] | > 0.5 | < 0.5
